Consider 4 molecules from patent US20140228423A1, “BIOMARKERS AND THERAPY FOR CANCER” (BAYLOR COLLEGE OF MEDICINE, priority 2011, published 2014).

The subject of data set [1] is OVCAR8 cells. The data set is described as follows: High-throughput screen of Prestwick Chemical Library with or without YM155.
Procedure: High-throughput screen for drugs that synergize with YM155. […] Digitonin (0.8 mg/ml) was used as a positive control for ˜100% cell death. […] The relative synergy for each drug was then calculated by subtracting measured cell survival of combinatorial treatment from the calculated c value.
To identify additional small molecules that synergize with YM155, a small library screen was performed.
Data set [2] relates to Dicer-Pten DKO mouse cancer cell lines. The data set is described as follows: Cell viability (CellTiter-Glo) of Dicer-Pten DKO mouse cancer cell lines after miRNA mimic transfection or everolimus. It counts as cell-based. Conditions: for sensitivity of cells (anti-proliferative, secondary to G1 arrest, and pro-apoptotic effects): Dicer/Pten double null line from primary mouse serous cancer, everolimus 0.8 uM, 48 h, alone and in combination; for cell viability and proliferation after miR-34c mimic delivery: mouse and human serous cancer cell lines (three PTEN/DICER DKO lines, OVCAR8). As to the method: FIG. 4. Activation of the PI3K pathway in Dicer/Pten DKO mice and effects of mir34c and everolimus on a Dicer/Pten DKO cell line. A, Western blot analysis of DKO fallopian tube tumors showing activation of AKT signaling compared with control fallopian tubes. B, A Dicer/Pten DKO cell line was transfected with miR-34c mimic or a control (miR-Ctrl), treated with everolimus (0.8 uM) or without (DMSO), and examined 48 h later for the effects on cell viability.
To functionally evaluate the roles of miR34c and the mTOR inhibitor everolimus in serous cancers, the inventors first generated 32 cell lines from primary cancers (5 lines), metastatic lesions (11 lines), and ascites fluid (16 lines) of independent Dicer/Pten DKO mice. The effects were analyzed of everolimus and miR-34c mimic alone and in combination on a confirmed Dicer/Pten double null cell line derived from a primary mouse serous cancer. […] Based on the studies, there are the following considerations: 1) MiR-34c and additional miRNAs function to suppress the development of high grade serous carcinomas and the […], and/or 2) Simultaneous pharmacological targeting of mTOR and pathways downstream of miR-34c and other miRNAs leads to therapies to eradicate high-grade serous carcinomas.
Dicer-Pten DKO mouse cancer cell line DKO-1 were transfected with various miRNA mimics including miR-31, miR-100, let-7b, miR-34c or a miRNA control (miR-Ctrl). Cell viability was measured by ATP quantitation-based CellTiter-Glo assay 48 hours after transfection.
(§1) FIG. 13A is a cell viability assay. Dicer-Pten DKO mouse cancer cell lines were transfected with miR-34c followed by cell viability assay in 48 hours using CellTiter-Glo assay. FIG. 13B is cell cycle analysis. Forty-eight hours after miR-34c transfection, Dicer-Pten DKO mouse cancer cell lines were fixed in cold 70% ethanol and stained with PI. Cell cycle profiles were determined by flow cytometry and analyzed by flowjo.

Data set [3] deals with mouse serous cancer cell lines and the human serous cancer line OVCAR8. The data set is described as follows: Treatment of serous cancer cell lines with YM155 or everolimus. The class given is cell-based. The source says:
Well-known as an apoptosis inhibitor, survivin has been identified to contribute to nearly every aspect of cancer from onset to outcome (Altieri, 2008; Martinelli et al., 2006). Nearly all serous, endometrioid, and poorly-differentiated ovarian cancers express surviving (Cohen et al., 2003), the levels of survivin correlate with poor prognostic parameters (Cohen et al., 2003), high levels of survivin are associated with taxol/platinum resistance (Zaffaroni et al., 2002), and women with PTEN-negative/survivin-positive ovarian cancers have the worst prognosis (Sui et al., 2006). […] Based on these findings, the inventors treated mouse serous cancer cell lines and the human serous cancer line OVCAR8 with YM155 or everolimus, an inhibitor of mTOR (FIG. 5A, B). […] These findings indicate that YM155 and everolimus can be used to identify small molecules that synergize with the compounds to eradicate high-grade serous carcinomas in women.

The test system of data set [4] is PTEN/DICER DKO primary serous cancer cell lines. Description: Microarray analysis (QPCR follow-up) of gene expression after miR-34c mimic transfection. It counts as cell-based, mouse. Here is the method: To characterize the roles of miR-34c in regulating major cancer and cell cycle pathways, mimics were transfected into three independent PTEN/DICER DKO primary serous cancer cell lines and the human OVCAR8 serous cancer cell line and assayed for cell viability and cell proliferation (FIG. 5C, D) and microarray analysis was performed, with followup QPCR confirmation. […] The effects were examined of miR-34c on major pathway genes that contain miR-34c binding sites in their 3′UTR sequences as well as pathways in which these proteins lie. […] These findings are especially relevant to cancer treatment since mutations in TOP2A are associated with drug resistance, and TOP2A is the target for several chemotherapeutic agents.

Data set [5] deals with OVCAR8. The data set is described as follows: Lentiviral expression of miR-34c in OVCAR8: proliferation (CellTiter-Glo) and cell cycle (PI flow cytometry). The class given is cell-based, human. Here is the method: FIG. 10. Drug and miRNA mimic effects on ovarian cancer cell viability (A-C) and proliferation (D). OVCAR8 cancer cells were incubated for 48 hours in the presence of YM155 (A) or everolimus (B) and assayed for cell viability. C. Three independent PTEN/DICER DKO mouse serous carcinoma cell lines were transfected with miRNA control (miR-Ctrl) or miR-34c mimics and assayed for cell viability 48 hours later. D. OVCAR8 cells were infected with lentivirus expressing miR-Ctrl or miR-34c and assayed for cell number. *, P<0.05; **, P<0.005; ***, P<0.0005
In FIG. 16A, OVCAR8 infected with miR-34c or control lentivirus were seeded onto 96-well plates for proliferation assay measured by CellTiter-Glo assay. In FIG. 16B, five days after miR-34c or control lentivirus infection, cells were fixed in cold 70% ethanol and stained with PI. Cell cycle profiles were determined by flow cytometry and analyzed by flowjo.

For data set [6], the system named is Dicer-Pten DKO mouse cancer cell lines. The data set is described as follows: Cell cycle analysis (PI, flow cytometry) after miR-34c transfection. It counts as cell-based. The conditions noted are these: 48 hours after miR-34c transfection. Here is the method: as §1
For data set [7], the system named is Dicer-Pten DKO mouse cancer cell line. The data set is described as follows: QPCR analysis of miR-34c downstream genes after miR-34c mimic transfection. It counts as cell-based. The source says: In FIG. 14, miR-34c inhibits cyclinE-CDK2 complex. Analysis of some of miR-34c downstream genes is shown. QPCR analysis showing relative quantity of CDK2 (A), CCNE2 (B) and CDKN1C(C) after miR-34c mimic transfection in Dicer-Pten DKO mouse cancer cell line.

The mark [8] stands for this setting: transient transfection, Dicer-Pten DKO cell lines.

`C[C@@H]1CC[C@@]2(OC1)O[C@H]1[C@@H](O)[C@H]3[C@@H]4CC[C@H]5C[C@@H](O[C@@H]6O[C@H](CO)[C@H](O[C@@H]7O[C@H](CO)[C@@H](O)[C@H](O[C@@H]8OC[C@@H](O)[C@H](O)[C@H]8O)[C@H]7O[C@@H]7O[C@H](CO)[C@H](O)[C@H](O[C@@H]8O[C@H](CO)[C@@H](O)[C@H](O)[C@H]8O)[C@H]7O)[C@H](O)[C@H]6O)[C@H](O)C[C@]5(C)[C@H]4CC[C@]3(C)[C@H]1[C@@H]2C` [Digitonin] yielded a cell death in data set [1] (0.8 mg/ml, positive control) of around 100%.
For the molecule `COc1cc(/C=C/C(=O)N2CCC=CC2=O)cc(OC)c1OC` [Piperlongumine], the cell survival in data set [1] (concentration of 6.3 mM) was 10 % of the control.
With `CO[C@H]1C[C@@H]2CC[C@@H](C)[C@@](O)(O2)C(=O)C(=O)N2CCCC[C@H]2C(=O)O[C@H]([C@H](C)C[C@@H]2CC[C@@H](OCCO)[C@H](OC)C2)CC(=O)[C@H](C)/C=C(\C)[C@@H](O)[C@@H](OC)C(=O)[C@H](C)C[C@H](C)/C=C/C=C/C=C/1C` [everolimus, reference compound], the “sensitivity of cells (anti-proliferative, secondary to G1 arrest, and pro-apoptotic effects)” value in data set [2] is “exquisitely sensitive”. Besides, the “sensitivity of the tumors (cell viability)” value in data set [3] is “micromolar levels”.
With “miR-34c mimic: mimic of miR-34c, mature sequence AGGCAGUGUAGUUAGCUGAUUGC (SEQ ID NO:2); also delivered by lentivirus (listed as RNA, chemistry not given here)”, in data set [2], the “sensitivity of cells (anti-proliferative, secondary to G1 arrest, and pro-apoptotic effects)” value is “exquisitely sensitive”; the “cell viability and proliferation after miR-34c mimic delivery” value is given as “dramatic effect”. Besides, the “suppression of mouse and human ovarian cancer cell viability among miRNAs tested” value in data set [2] (Dicer/Pten serous ovarian cancer model) was “the only miRNA to suppress”. Also, the “cell viability and proliferation after miR-34c mimic delivery” value in data set [2] (listed as miR-34c) is “reduced cell viability”. Moreover, in data set [2] (setting [8]), the apoptosis result is “induction of apoptosis” and the cell growth entry was “growth inhibitory effect”. In addition, the “suppression of TOP2A” value in data set [4] (by the miR-34c mimic) was 11.7 fold. In data set [4] (gene CCNE2, predicted miR-34c binding site), the “Fold Change miR-34c mimic: CCNE2” value is recorded as −4.6. The “Fold Change miR-34c mimic: CDC6” value in data set [4] (gene CDC6, predicted miR-34c binding site) is −5.5. For the same molecule, the “Fold Change miR-34c mimic: CDCA8” value in data set [4] (gene CDCA8, predicted miR-34c binding site) is given as −9.6. For the same molecule, the “Fold Change miR-34c mimic: CDK2” value in data set [4] (gene CDK2) is reported as −3.4. Moreover, the “Fold Change miR-34c mimic: CDT1” value in data set [4] (gene CDT1) was −6.3. In addition, the “Fold Change miR-34c mimic: INCENP” value in data set [4] (gene INCENP) is −4.5. Moreover, the “Fold Change miR-34c mimic: MCM5” value in data set [4] (gene MCM5, predicted miR-34c binding site) is −18.7. Besides, the “Fold Change miR-34c mimic: MDM2” value in data set [4] (gene MDM2) amounted to 1.0. In addition, the “Fold Change miR-34c mimic: MRVI1” value in data set [4] (gene MRVI1) was determined as 10.2. Moreover, in data set [4] (gene PBK), the “Fold Change miR-34c mimic: PBK” value was −5.7. The “Fold Change miR-34c mimic: Survivin” value in data set [4] (gene Survivin) is given as −4.8. Besides, the “Fold Change miR-34c mimic: TOP2A” value in data set [4] (gene TOP2A) was −11.7. In addition, the “upregulation of MRVI1” value in data set [4] (miR-34c mimic) is listed as 10.2 fold. The “downregulation of direct targets MCM5, CDC6, CCNE2 and CDCA8” value in data set [4] (upon delivery of miR-34c) was 4.6-18.7 fold. Besides, the cell cycle profile result in data set [5] (five days after lentivirus infection, OVCAR8) was “arresting cancer cells in G1 phase”. Moreover, the cell proliferation entry in data set [5] (lentiviral expression of miR-34c in OVCAR8) is given as “inhibits cell proliferation”. In addition, in data set [6], the cell cycle profile result is on record as “cell cycle arrest in G1 phase”. Also, in data set [7], the CDK2 relative quantity result is on record as “down regulating”, the CDKN1C relative quantity entry is “up regulating” and the “cyclinE (CCNE2) relative quantity” value is on record as “down regulating”.
